For one assay, the system named is SK-OV-3 cells. As to the kind of experiment: MTT cell growth inhibition assay in ovarian cancer cell line SK-OV-3. The assay is classed as cell-based. As to conditions: Homo sapiens, 72 hrs incubation, read-out: SKOV3, nM (CC50, concentration giving 50% cell survival, as range). A digest of the protocol:
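SK-OV-3 cells (5,000 per well, McCoy's medium with 10% FBS) exposed to compounds at 0.003-10 μM for 72 h at 37°C, followed by MTT for 3 h, DMSO solubilisation and OD at 535 nm. CC50 is the concentration giving 50% survival relative to control wells, reported in ranges (A <0.1 μM to D >10 μM).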

Another assay concerns the target T1, XIAP BIR-3 (Homo sapiens, UniProt P98170).
T1 construct: 40 nM of the respective IAP BIR3
As to the kind of experiment: Fluorescence polarization binding to XIAP BIR-3 with labeled peptide AbuRPF-K(5-Fam)-NH2. As to conditions: XIAP BIR-3, 40 nM BIR3, 5 nM labeled peptide, 15 min RT, pH 7.5; read-out: XIAP, nM (binding affinity KD, as range). A digest of the protocol:
(§1)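 Competitive FP with 5 nM 5-Fam-labelled Smac-mimetic peptide and 40 nM IAP BIR3, 15 min at RT in 0.1 M potassium phosphate pH 7.5 with bovine γ-globulin. Polarization (mP) read at 485/520 nm; KD reported as ranges A–D (A <0.1 μM to D >10 μM).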

A further assay deals with T2, cIAP-1 BIR-3 (Homo sapiens, UniProt Q13490).
T2 construct: 40 nM of the respective IAP BIR3
As to the kind of experiment: Fluorescence polarization binding to cIAP-1 BIR-3 with labeled peptide AbuRPF-K(5-Fam)-NH2. The conditions noted are these: cIAP-1 BIR-3, 40 nM BIR3, 5 nM labeled peptide, 15 min RT, pH 7.5; read-out: cIAP1, nM (binding affinity KD, as range). In outline: as §1

Each structure is given as a SMILES string.

T1 sequence (P98170 241-356 limits assumed): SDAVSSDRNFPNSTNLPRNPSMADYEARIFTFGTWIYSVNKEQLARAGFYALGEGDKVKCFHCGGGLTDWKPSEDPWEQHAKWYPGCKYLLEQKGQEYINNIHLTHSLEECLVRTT
T2 sequence (Q13490 253-363 limits assumed): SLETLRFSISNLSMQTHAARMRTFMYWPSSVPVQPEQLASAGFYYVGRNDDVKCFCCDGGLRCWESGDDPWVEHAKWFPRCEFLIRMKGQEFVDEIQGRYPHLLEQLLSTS

As to `CN[C@@H](C)C(=O)N[C@H](C(=O)N1CC[C@@H]2[C@H]1[C@@H](C(=O)Nc1cc(C)nc3ccccc13)CN2S(C)(=O)=O)C(C)(C)C` [Example 48, 4-[3,3-Dimethyl-2-(2-methylamino-propionylamino)-butyryl]-1-methanesulfonyl-octahydro-pyrrolo[3,2-b]pyrrole-3-carboxylic acid (2-methyl-quinolin-4-yl)-amide], the CC50 with SK-OV-3 cells is less than 100 nM. Moreover, the Kd on XIAP BIR-3 and on cIAP-1 BIR-3 was less than 100 nM throughout.
As to `CN[C@@H](C)C(=O)N[C@H](C(=O)N1CC[C@@H]2[C@H]1[C@@H](C(=O)Nc1nccc3ccccc13)CN2S(C)(=O)=O)C(C)(C)C` [Example 49, 4-[3,3-Dimethyl-2-(2-methylamino-propionylamino)-butyryl]-1-methanesulfonyl-octahydro-pyrrolo[3,2-b]pyrrole-3-carboxylic acid isoquinolin-1-ylamide], the CC50 in the assay with SK-OV-3 cells was less than 100 nM. In addition, the Kd on XIAP BIR-3 and at cIAP-1 BIR-3 was less than 100 nM throughout.
As for `CN[C@@H](C)C(=O)N[C@H](C(=O)N1CC[C@@H]2[C@H]1[C@@H](C(=O)Nc1ccc3ncccc3c1)CN2S(C)(=O)=O)C(C)(C)C` [Example 50, 4-[3,3-Dimethyl-2-(2-methylamino-propionylamino)-butyryl]-1-methanesulfonyl-octahydro-pyrrolo[3,2-b]pyrrole-3-carboxylic acid quinolin-6-ylamide], the CC50 in the assay with SK-OV-3 cells is less than 100 nM. Moreover, the Kd (commonly the constant that tells how readily two partners part at equilibrium) at XIAP BIR-3 was 100 to 1000 nM; on cIAP-1 BIR-3, less than 100 nM.
As for `CN[C@@H](C)C(=O)N[C@H](C(=O)N1CC[C@@H]2[C@H]1[C@@H](C(=O)Nc1cnc3ccccc3c1)CN2S(C)(=O)=O)C(C)(C)C` [Example 51, 4-[3,3-Dimethyl-2-(2-methylamino-propionylamino)-butyryl]-1-methanesulfonyl-octahydro-pyrrolo[3,2-b]pyrrole-3-carboxylic acid quinolin-3-ylamide], in the assay on SK-OV-3 cells, the CC50 was less than 100 nM. Further, the dissociation constant (Kd) is 100 to 1000 nM on XIAP BIR-3 and less than 100 nM at cIAP-1 BIR-3.
`CN[C@@H](C)C(=O)N[C@H](C(=O)N1CC[C@@H]2[C@H]1[C@@H](C(=O)Nc1ccc3ccccc3n1)CN2S(C)(=O)=O)C(C)(C)C` [Example 52, 4-[3,3-Dimethyl-2-(2-methylamino-propionylamino)-butyryl]-1-methanesulfonyl-octahydro-pyrrolo[3,2-b]pyrrole-3-carboxylic acid quinolin-2-ylamide]: the CC50 with SK-OV-3 cells was less than 100 nM. In addition, the values for the Kd at XIAP BIR-3 and at cIAP-1 BIR-3 were 100 to 1000 nM and less than 100 nM, respectively.
Regarding `CN[C@@H](C)C(=O)N[C@H](C(=O)N1CC[C@@H]2[C@H]1[C@@H](C(=O)Nc1cccc3ccccc13)CN2C(=O)CNC(=O)C(=O)NCC(=O)N1C[C@H](C(=O)Nc2cccc3ccccc23)[C@@H]2[C@H]1CCN2C(=O)[C@@H](NC(=O)[C@H](C)NC)C(C)(C)C)C(C)(C)C` [Example 53, N,N′-Bis-{2-[4-[3,3-dimethyl-2-(2-methylamino-propionylamino)-butyryl]-3-(naphthalen-1-ylcarbamoyl)-hexahydro-pyrrolo[3,2-b]pyrrol-1-yl]-2-oxo-ethyl}-oxalamide], in the assay on SK-OV-3 cells, the CC50 is less than 100 nM. Also, the Kd at XIAP BIR-3 and at cIAP-1 BIR-3 was less than 100 nM each time.
On to `CN[C@@H](C)C(=O)N[C@H](C(=O)N1CC[C@@H]2[C@H]1[C@@H](C(=O)Nc1ccc(F)cc1)CN2C(=O)CNC(=O)C(=O)NCC(=O)N1C[C@H](C(=O)Nc2ccc(F)cc2)[C@@H]2[C@H]1CCN2C(=O)[C@@H](NC(=O)[C@H](C)NC)C(C)(C)C)C(C)(C)C` [Example 54, N,N′-Bis-{2-[4-[3,3-dimethyl-2-(2-methylamino-propionylamino)-butyryl]-3-(4-fluoro-phenylcarbamoyl)-hexahydro-pyrrolo[3,2-b]pyrrol-1-yl]-2-oxo-ethyl}-oxalamide], for which the CC50 in the assay with SK-OV-3 cells is less than 100 nM. Moreover, the Kd at XIAP BIR-3 and on cIAP-1 BIR-3 was less than 100 nM throughout.

Source of the values: patent publication US8481495B2 (TetraLogic Pharmaceuticals Corporation, priority 2009, dated 2013).
